Measurements as given in patent US10172356B2, “Bipyridine compound and use of same for noxious arthropod control” (Sumitomo Chemical Company, Limited, priority 2015, dated 2019).

Columns and labels:
Type in all cases: in vivo
[1] = system: cabbage moth (Plutella xylostella); test: Test Example 7: cabbage moth on sprayed cabbage, 500 ppm; conditions: 120 h, 20 mL/cup sprayed on cabbage, second instar larvae, after 5 days, 25° C., read-out: Mortality of insects
Procedure: Each of the compounds S-1, S-5, S-7, S-8, S-9, S-10, O-1, and O-2 was made to a formulation according to a similar method to that described in the Formulation example 5 and was then diluted with water so that each of the active ingredient concentration was set to 500 ppm to prepare each of the diluted solution.
A cabbage in the third leaf stage was planted in a polyethylene cup, and thereto was sprayed the diluted solution in ratio 20 mL/cup. After the above-mentioned dilutions were dried, and the stem and leaf thereof was cut and then was stalled in a 50 mL cup, and five heads of cabbage moth (Plutella xylostella) at the second instar larval stages were released into the cup and the cup was covered with the lid. The cup was held at 25° C. and after 5 days, the number of died insects was counted and the mortality of insects was calculated by the following equation. Mortality of insects (%)=(Number of dead insects/Number of tested insects)×100

[2] = system: western corn rootworm (Diabrotica virgifera virgifera); test: Test Example 10: western corn rootworm on corn seedling immersed in diluted solution, 500 ppm; conditions: 120 h, corn seedling immersed 30 seconds, second instar larvae, after 5 days, 25° C., read-out: Mortality of insects
Procedure: The compound S-1 was mixed with a mixed solution of acetone and polyoxyethylene sorbitan mono-cocoate (acetone and polyoxyethylene sorbitan mono-cocoate=95 : 5 (weight ratio)) a ratio of 50 μL of the mixed solution per 1 mg of the compound S-1, and the resulting mixtures were then diluted with ion-exchange water containing 0.03% by volume of shindain (registered trademark, manufactured by Sumitomo Chemical Co. Ltd.) so that the concentration of the compound S-1 was set to 500 ppm to prepare the diluted solution of the compound S-1.
Corns (Xea mays) were sown on a tray overlaid with damped KimWipes (registered trademark). After corns were grown for 5 days, the entire seedling of the corn was immersed into the diluted solution for 30 seconds. After the seedling was dried, two grains of the seedling were installed in a plastic petri dish ([…]), and ten heads of western corn rootworm (Diabrotica virgifera virgifera) at the second instar larval stages were released onto the petri dish and the petri dish was covered with the lid. The petri dish was held at 25° C. and after 5 days, the number of died insects was counted and the mortality of insects was calculated by the following equation. Mortality of insects (%)=(Number of dead insects/Number of tested insects)×100
Similarly, using the compounds S-2, S-3, S-7, S-10, O-1 and O-2 instead of the compound S-1, the tests were carried out.

[3] = system: cabbage moth (Plutella xylostella); test: Test Example 8: cabbage moth on sprayed cabbage, 200 ppm; conditions: 120 h, 20 mL/cup sprayed on cabbage, second instar larvae, after 5 days, 25° C., read-out: Mortality of insects
Procedure: Each of the compounds S-7, S-8, S-9, S-10, and O-2 was made to a formulation according to a similar method to that described in the Formulation example 5 and was then diluted with water so that each of the active ingredient concentration was set to 200 ppm to prepare each of the diluted solution.
A cabbage in the third leaf stage was planted in a polyethylene cup, and thereto was sprayed the diluted solution in a ratio of 20 mL/cup. After the above-mentioned dilutions were dried, and the stem and leaf thereof was cut and then was installed in a 50 mL cup, and five heads of cabbage moth (Plutella xylostella) at the second instar larval stages were released into the cup and the cup was covered with the lid. The cup was held at 25° C. and after 5 days, the number of died insects was counted and the mortality insects was calculated by the following equation. Mortality of insects (%)=(Number of dead insects/Number of tested insects)×100

[4] = system: cotton aphid (Aphis gossypii); test: Comparative Experiment 2 (method of Test Example 2: cotton aphid, spray, 200 ppm); conditions: cotton aphid on cucumber seedling, 200 ppm (method of Test Example 2)
Procedure: Cucumber seedling (on the developmental stage of the first true leaf) was planted in a polyethylene cup and 30 heads of cotton aphid (Aphis gossypii) (all stages of life) were released onto the leaves of the cucumber and allowed to stand for 1 day. The diluted solutions 20 mL were sprayed into the seedling. Cucumber (cv; Sagami-hanjiro-fushinari) was grown in a polyethylene cup until the first true leaf was developed. Approximately 30 heads of cotton aphid (Aphis gossypii) (including the adults and the larvae) was released onto the leaves of the […] and next day, the above-mentioned testing drug dilutions 20 mL were sprayed. After 6 days, the number of the surviving insects that were parasitic on the leaves of the cucumber was examined and the controlling value was calculated by the following equation. Controlling value (%)={1-(Cb×Tai)/(Cai×Tb)}×100 wherein the symbols in the formula represent the following descriptions. Cb: Number of the insects before treatment in untreated area; Cai: Number of the surviving parasitic insects at the time of the investigation in untreated area; Tb: Number of the insects before treatment in treated area; Tai: Number of the surviving parasitic insects at the time of the investigation in treated area; Here the “untreated area” represents an area that was sprayed by a diluted solution of the formulation described in the Formulation Example 5 without the compound A with water in the same amount as that of the treated area. […] Here A represents 100%, B represents 90 to 99%, C represents 60 to 89%, D represents 30 to 59% and represents 0 to 29% as a control value.

[5] = system: brown planthopper (Nilaparvata lugens); test: Comparative Experiment 5 (method of Test Example 5: brown planthopper, spray, 200 ppm); conditions: brown planthopper on rice seedling, 200 ppm (method of Test Example 5)
Procedure: Rice seedling (on the developmental stage of the second true leaf) was planted in a polyethylene cup, and the diluted solutions 10 mL were sprayed. After air drying, 20 heads of 3rd to 4th instar larvae of brown planthopper (Nilaparvata lugens) were released onto the rice leaves and the plants were held at 25° C. in a greenhouse. After 6 days, the number of the surviving insects that were parasitic on the leaves of the rice was examined and the controlling value was calculated by the following equation. Controlling value (%)={1-(Cb×Tai)/(Cai×Tb)}×100 wherein the symbols in the formula represent the following descriptions. Cb: Number of the insects before treatment in untreated area; Cai: Number of the surviving parasitic insects at the time of the investigation in untreated area; Tb: Number of the insects before treatment in treated area; Tai: Number of the surviving parasitic insects at the time of the investigation in treated area; Here the “untreated area” represents an area that was sprayed by a diluted solution of the formulation described in the Formulation Example 5 without the compound A with water in the same amount as that of the treated area. […] Here A represents 100%, B represents 90 to 99%, C represents 60 to 89%, D represents 30 to 59% and represents 0 to 29% as a control value.

[6] = system: cotton aphid (Aphis gossypii); test: Comparative Experiment 3 (method of Test Example 3: cotton aphid, irrigation, 200 ppm); conditions: cotton aphid on cucumber seedling, irrigation into plant foot, 200 ppm (method of Test Example 3)
Procedure: Cucumber seedling (on the developmental stage of the second true leaf) was planted in a polyethylene cup, and the diluted solutions 5 mL were irrigated into the plant foot, and the plants were held at 25° C. in a greenhouse for 7 days. Approximately 30 heads of cotton aphid (Aphis gossypii) (all stages of life) were inoculated onto the cucumber leaves and the plants were held in a greenhouse for additional 6 days, and then the number of the surviving […] parasitic on the cucumber leaves was examined and the controlling value was calculated by the following equation. Controlling value (%)={1-(Cb×Tai)/(Cai×Tb)}×100 wherein the symbols in the formula represent the following descriptions. Cb: Number of the insects before treatment in untreated area; Cai: Number of the surviving parasitic insects at the time of the investigation in untreated area; Tb: Number of the insects before treatment in treated area; Tai: Number of the surviving parasitic insects at the time of the investigation in treated area; Here the “untreated area” represents an area that was sprayed by a diluted solution of the formulation described in the Formulation Example 5 without the compound A with water in the same amount as that of the treated area. […] Here A represents 100%, B represents 90 to 99%, C represents 60 to 89%, D represents 30 to 59% and represents 0 to 29% as a control value.

[7] = system: female adult housefly (Musca domestica); test: whole plant or invertebrate; conditions: 24 h, read-out: Mortality of insects
Procedure: Each of the compounds S-2, S-3, S-7, S-8, and N-1 was made to a formulation according to a similar method to that described in the Formulation example 5 and was then diluted with water so that each of the active ingredient concentration was set to 500 ppm to prepare each of the diluted solution.
The bottom of the polyethylene cup having 5.5 cm diameter was matted with the same size of a filter paper, and 0.7 mL of the diluted solution was added dropwise to the filter paper and 30 mg sucrose as bait was placed in the cup uniformly. Ten (10) heads of female adult housefly (Musca domestica) were released into the polyethylene cup and the cup was covered with the lid. After 24 hours, the life and death of housefly was examined and the number of died insects was counted and the mortality of insects was calculated by the following equation. Mortality of insects (%)=(Number of dead insects/Number of tested insects)×100

SMILES	mortality at 500 ppm [1]	mortality at 500 ppm [2]	mortality at 200 ppm [3]	control value, Comparative Experiment 2 [4]	control value, Comparative Experiment 5 [5]	control value, Comparative Experiment 3 [6]	mortality at 500 ppm [7]
CCS(=O)(=O)c1cccnc1-c1ccc(OS(=O)(=O)C(F)(F)F)cn1 [Compound O-1]	≥ 80%	≥ 80%					
CCS(=O)(=O)c1cccnc1-c1ccc(OS(=O)(=O)CC(F)(F)F)cn1 [Compound O-2]	≥ 80%	≥ 80%	≥ 80%				
CCS(=O)(=O)c1cccnc1-c1ccc(SCC(F)(F)F)cn1 [Compound S-1]	≥ 80%			A (A represents 100%)	A (A represents 100%)	B (B represents 90 to 99%)	
CCS(=O)(=O)c1cccnc1-c1ccc(SCC(F)(F)C(F)(F)F)cn1 [Compound S-4]		≥ 80%					
CCS(=O)(=O)c1cccnc1-c1ccc(SC(F)(F)F)cn1 [Compound S-7]	≥ 80%	≥ 80%	≥ 80%	A (A represents 100%)	A (A represents 100%)	A (A represents 100%)	100%
CCS(=O)(=O)c1cccnc1-c1ccc([S+]([O-])C(F)(F)F)cn1 (centres unmarked) [Compound S-8]				A (A represents 100%)	A (A represents 100%)	A (A represents 100%)	
FC(F)(F)CSc1ccc(-c2ccc(C(F)(F)F)cc2)nc1 [Compound V-7, reference compound]				E (represents 0 to 29% as a control value)	D (D represents 30 to 59%)	E (represents 0 to 29% as a control value)	
FC(F)(F)Sc1ccc(-c2ccc(C(F)(F)F)cc2Cl)nc1 [Compound V-11, reference compound]				E (represents 0 to 29% as a control value)	E (represents 0 to 29% as a control value)	E (represents 0 to 29% as a control value)	
[O-][S+](c1ccc(-c2ccc(C(F)(F)F)cc2Cl)nc1)C(F)(F)F (centres unmarked) [Compound V-12, reference compound]				E (represents 0 to 29% as a control value)	E (represents 0 to 29% as a control value)	E (represents 0 to 29% as a control value)	
